Test results reported in US8247211B2, “Glycopeptide antibiotics” (American Cyanamid Company, priority 2001, dated 2012).
Values after ≈ are worked out from the molar mass of the structure shown.

Legend:
Assay in all cases: In vitro antibacterial evaluation: minimum inhibitory concentration (MIC), broth dilution method
Type in all cases: cell-based
Enterococcus sp. = details: broth dilution, 5×10^5 CFU/mL, 18 hours at 35° C.
How it was run: (§1)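 Using Muller-Hinton II […] and an inoculum of 5×10^5 CFU/mL, antibiotic dilutions from 64 down to 0.06 μg/mL were tested following NCCLS M7-A2. The MIC is the lowest concentration inhibiting growth, including in methicillin-, penicillin- or vancomycin-resistant clinical isolates.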

Staphylococcus sp. = details: for MIC Staphylococcus aureus-SMITH (GC 4543): strain GC 4543; for MIC Staphylococcus haemolyticus (GC 4546): strain GC 4546; for MIC Coagulase Negative Staphylococcus (GC 4547): strain GC 4547; for MIC Coagulase Negative Staphylococcus (GC 4548): strain GC 4548; for MIC Coagulase Negative Staphylococcus (GC 4549): strain GC 4549; for MIC Coagulase Negative Staphylococcus (GC 4551): strain GC 4551; for MIC Coagulase Negative Staphylococcus (GC 6257): strain GC 6257
How it was run: as §1

Streptococcus sp. = details: broth dilution, 5×10^5 CFU/mL, 18 hours at 35° C.
How it was run: as §1

Escherichia coli = details: 5×10^5 CFU/mL, 18 hours at 35° C.
How it was run: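 Susceptibility determined by NCCLS-recommended broth dilution (M7-A2), Muller-Hinton II […]. Concentration span 64-0.06 μg/mL, inoculum 5×10^5 CFU/mL. Isolates include strains resistant to methicillin, penicillin and/or vancomycin.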

[1] = broth dilution, 18 hours at 35° C.

Compound: CC(c1ccccc1)C1NC(=O)CNC(=O)C(CO)NC(=O)C(C(O)C2CNC(=N)N2C2OC(CO)C(O)C(O)C2O)NC(=O)C(C(O)C2CNC(=N)N2)NC(=O)C(Cc2ccc(OC3OC(CO)C(OC4OC(CO)C(O)C5OC(c6ccccc6)OC45)C(O)C3O)cc2)NC1=O (single isomer, unassigned) [Example 104b, Cyclo[glycyl-β-methylphenylalanyl-O-[4-O-(2,3-O-benzylidenehexopyranosyl)hexopyranosyl]-tyrosyl-3(2-iminoimidazolidin-4-yl)seryl-3-(3-hexopyranosyl-2-iminoimidazolidin-4-yl)-serylseryl]]
- MIC Enterococccus avium (GC 4558) (Enterococcus sp.): 0.5 µg/mL (≈ 0.361 µM)
- MIC Enterococccus faecalis (ATCC 29212) (Enterococcus sp.): 0.5 µg/mL (≈ 0.361 µM)
- MIC Enterococccus faecalis (GC 2691) (Enterococcus sp.): 0.5 µg/mL (≈ 0.361 µM)
- MIC Enterococccus faecalis (GC 3059) (Enterococcus sp.): 0.5 µg/mL (≈ 0.361 µM)
- MIC Enterococccus faecalis (GC 4552) (Enterococcus sp.): 0.5 µg/mL (≈ 0.361 µM)
- MIC Enterococccus faecalis (GC 4553) (Enterococcus sp.): 0.5 µg/mL (≈ 0.361 µM)
- MIC Enterococccus faecalis (GC 4554) (Enterococcus sp.): 0.5 µg/mL (≈ 0.361 µM)
- MIC Enterococccus faecalis (GC 6189) (Enterococcus sp.): 0.5 µg/mL (≈ 0.361 µM)
- MIC Enterococccus faecium (GC 2243) (Enterococcus sp.): 0.5 µg/mL (≈ 0.361 µM)
- MIC Enterococccus faecium (GC 4556) (Enterococcus sp.): 0.5 µg/mL (≈ 0.361 µM)
- MIC Enterococccus faecium (GC 4557) (Enterococcus sp.): 0.5 µg/mL (≈ 0.361 µM)
- MIC Enterococcus faecalis (GC 2242) (Enterococcus sp.): 0.5 µg/mL (≈ 0.361 µM)
- MIC Staphylococcus aureus (ATCC 29213) (Staphylococcus sp.; strain ATCC 29213): 0.5 µg/mL (≈ 0.361 µM)
- MIC Staphylococcus aureus (GC 1131) (Staphylococcus sp.; strain GC 1131): 0.5 µg/mL (≈ 0.361 µM)
- MIC Staphylococcus aureus (GC 3051) (Staphylococcus sp.; strain GC 3051): 0.5 µg/mL (≈ 0.361 µM)
- MIC Staphylococcus aureus (GC 3053) (Staphylococcus sp.; strain GC 3053): 0.5 µg/mL (≈ 0.361 µM)
- MIC Staphylococcus aureus (GC 4541) (Staphylococcus sp.; strain GC 4541): 0.5 µg/mL (≈ 0.361 µM)
- MIC Staphylococcus aureus (GC 4542) (Staphylococcus sp.; strain GC 4542): 0.5 µg/mL (≈ 0.361 µM)
- MIC Staphylococcus aureus-SMITH (GC 4543) (Staphylococcus sp.; 18 hours at 35° C.): 0.5 µg/mL (≈ 0.361 µM)
- MIC Staphylococcus aureus-SMITH (GC 4543) (Staphylococcus sp.; [1]): 0.5 µg/mL (≈ 0.361 µM)
- MIC Staphylococcus aureus (GC 4544) (Staphylococcus sp.; strain GC 4544): 0.5 µg/mL (≈ 0.361 µM)
- MIC Staphylococcus aureus (GC 4545) (Staphylococcus sp.; strain GC 4545): 0.5 µg/mL (≈ 0.361 µM)
- MIC Staphylococcus haemolyticus (GC 4546) (Staphylococcus sp.): 0.5 µg/mL (≈ 0.361 µM)
- MIC Staphylococcus haemolyticus (GC 4546) (Staphylococcus sp.; [1]): 0.5 µg/mL (≈ 0.361 µM)
- MIC Coagulase Negative Staphylococcus (GC 4547) (Staphylococcus sp.): 4 µg/mL (≈ 2.89 µM)
- MIC Coagulase Negative Staphylococcus (GC 4547) (Staphylococcus sp.; [1]): 4 µg/mL (≈ 2.89 µM)
- MIC Coagulase Negative Staphylococcus (GC 4548) (Staphylococcus sp.): 4 µg/mL (≈ 2.89 µM)
- MIC Coagulase Negative Staphylococcus (GC 4548) (Staphylococcus sp.; [1]): 4 µg/mL (≈ 2.89 µM)
- MIC Coagulase Negative Staphylococcus (GC 4549) (Staphylococcus sp.): 4 µg/mL (≈ 2.89 µM)
- MIC Coagulase Negative Staphylococcus (GC 4549) (Staphylococcus sp.; [1]): 4 µg/mL (≈ 2.89 µM)
- MIC Coagulase Negative Staphylococcus (GC 4551) (Staphylococcus sp.): 8 µg/mL (≈ 5.78 µM)
- MIC Coagulase Negative Staphylococcus (GC 4551) (Staphylococcus sp.; [1]): 8 µg/mL (≈ 5.78 µM)
- MIC Coagulase Negative Staphylococcus (GC 6257) (Staphylococcus sp.): 2 µg/mL (≈ 1.45 µM)
- MIC Coagulase Negative Staphylococcus (GC 6257) (Staphylococcus sp.; [1]): 2 µg/mL (≈ 1.45 µM)
- MIC Streptococcus agalactiae (GC 4564) (Streptococcus sp.): 0.5 µg/mL (≈ 0.361 µM)
- MIC Streptococcus pneumoniae (GC 1894) (Streptococcus sp.): 0.12 µg/mL (≈ 0.0867 µM)
- MIC Streptococcus pneumoniae (GC 4565) (Streptococcus sp.): 0.12 µg/mL (≈ 0.0867 µM)
- MIC Streptococcus pneumonine (ATCC 6301) (Streptococcus sp.): 0.12 µg/mL (≈ 0.0867 µM)
- MIC Streptococcus pyogenes (GC 4563) (Streptococcus sp.): 0.12 µg/mL (≈ 0.0867 µM)
- MIC Escherichia coli (ATCC 25922) (Escherichia coli): >0.5 µg/mL
- MIC Escherichia coli (GC 4559) (Escherichia coli): >0.5 µg/mL
- MIC Escherichia coli (GC 4560) (Escherichia coli): 0.5 µg/mL (≈ 0.361 µM)
